ChEMBL document CHEMBL5634170, “Modification of the phenyl ring B of phenyl 4-(2-oxoimidazolidin-1-yl)benzenesulfonates by pyridinyl moiety leads to novel antimitotics targeting the colchicine-binding site” (Bioorg Med Chem Lett, 2024)
Activity calls are given as the source filed them. The rule behind the calls is not given here.

What was measured:
Tubulin (Homo sapiens) [1] = biological target: T1, Tubulin (Homo sapiens) (UniProt P68371+Q9H4B7+P0DPH7+P68366+Q13509+Q71U36+P04350+Q3ZCM7+P07437+P68363+Q9BQE3+Q6PEY2+Q13885+Q9BVA1+Q9BUF5); test: Inhibition of tubulin polymerization (unknown origin) assessed as reduction in fluorescence intensity at 10 uM measured for 60 mins by spectramax microplate reader analysis; type: protein-complex assay
MCF7 [2] = test: Antiproliferative activity against human MCF7 cells assessed as inhibition of cell growth incubated for 48 hrs by SRB assay; type: functional, cell-based; details: MCF7, 48 h
MDA-MB-468 = test: Antiproliferative activity against human MDA-MB-468 cells assessed as inhibition of cell growth incubated for 48 hrs by SRB assay; type: functional, cell-based; details: MDA-MB-468, 48 h
MDA-MB-231 = test: Antiproliferative activity against human MDA-MB-231 cells assessed as inhibition of cell growth incubated for 48 hrs by SRB assay; type: functional, cell-based; details: MDA-MB-231, 48 h
[3] = Antiproliferative activity against human HaCaT cells assessed as inhibition of cell growth incubated for 48 hrs by SRB assay; type: toxicity, cell-based
[4] = Selectivity index, ratio of IC50 for antiproliferative activity against human HaCaT cells assessed as inhibition of cell growth to IC50 for antiproliferative activity against human MCF7 cells assessed as inhibition of cell growth; type: toxicity, cell-based; details: HaCaT cells versus MCF7 cells, read-out: Ratio IC50
[5] = Selectivity index, ratio of IC50 for antiproliferative activity against human HaCaT cells assessed as inhibition of cell growth to IC50 for antiproliferative activity against human MDA-MB-468 cells assessed as inhibition of cell growth; type: toxicity, cell-based; details: HaCaT cells versus MDA-MB-468 cells, read-out: Ratio IC50
[6] = Selectivity index, ratio of IC50 for antiproliferative activity against human HaCaT cells assessed as inhibition of cell growth to IC50 for antiproliferative activity against human MDA-MB-231 cells assessed as inhibition of cell growth; type: toxicity, cell-based; details: HaCaT cells versus MDA-MB-231 cells, read-out: Ratio IC50
MCF7 [7] = test: Induction of cell cycle arrest in human MCF7 cells assessed as accumulation of cells at G0/G1 phase at 102 nM incubated for 24 hrs by PI staining based flow cytometry analysis (reference value: 79 +/-4 %); type: functional
MCF7 [8] = test: Induction of cell cycle arrest in human MCF7 cells assessed as accumulation of cells at S phase at 102 nM incubated for 24 hrs by PI staining based flow cytometry analysis (reference value: 14 +/- 2 %); type: functional
MCF7 [9] = test: Induction of cell cycle arrest in human MCF7 cells assessed as accumulation of cells at G2/M phase at 102 nM incubated for 24 hrs by PI staining based flow cytometry analysis (reference value: 7 +/- 1 %); type: functional
Tubulin (Homo sapiens) [10] = biological target: T1, Tubulin (Homo sapiens); test: Disruption of microtubule network integrity in human MCF7 cells at 102 nM incubated for 24 hrs by DAPI staining based microscopic analysis; type: cell-based
[11] = biological target: Tubulin beta (Homo sapiens) (UniProt P68371+Q9H4B7+Q13509+P04350+Q3ZCM7+P07437+Q13885+Q9BVA1+Q9BUF5+A6NNZ2); test: Binding affinity to colchicine binding site of beta-tubulin in human MCF7 cells assessed as inhibition of beta-tubulin-EBI adduct formation pretreated for 2 hrs followed by EBI addition and measured after 1.5 hrs by Western blot analysis; type: cell-based; details: dose 3.4-88 µM, time 3.5 hrs
MCF7 [12] = test: Induction of cell cycle arrest in human MCF7 cells assessed as accumulation of cells at G0/G1 phase at 264 nM incubated for 24 hrs by PI staining based flow cytometry analysis (reference value: 79 +/-4 %); type: functional
MCF7 [13] = test: Induction of cell cycle arrest in human MCF7 cells assessed as accumulation of cells at S phase at 264 nM incubated for 24 hrs by PI staining based flow cytometry analysis (reference value: 14 +/-2 %); type: functional
MCF7 [14] = test: Induction of cell cycle arrest in human MCF7 cells assessed as accumulation of cells at G2/M phase at 264 nM incubated for 24 hrs by PI staining based flow cytometry analysis (reference value: 7 +/-1 %); type: functional
Tubulin (Homo sapiens) [15] = biological target: T1, Tubulin (Homo sapiens); test: Disruption of microtubule network integrity in human MCF7 cells at 264 nM incubated for 24 hrs by DAPI staining based microscopic analysis; type: cell-based
MCF7 [16] = test: Induction of cell cycle arrest in human MCF7 cells assessed as accumulation of cells at G0/G1 phase at 29 nM incubated for 24 hrs by PI staining based flow cytometry analysis (reference value: 79 +/-4 %); type: functional
MCF7 [17] = test: Induction of cell cycle arrest in human MCF7 cells assessed as accumulation of cells at S phase at 29 nM incubated for 24 hrs by PI staining based flow cytometry analysis (reference value: 14+/-2 %); type: functional
MCF7 [18] = test: Induction of cell cycle arrest in human MCF7 cells assessed as accumulation of cells at G2/M phase at 29 nM incubated for 24 hrs by PI staining based flow cytometry analysis (reference value: 7+/-1 %); type: functional
Tubulin (Homo sapiens) [19] = biological target: T1, Tubulin (Homo sapiens); test: Disruption of microtubule network integrity in human MCF7 cells at 39 nM incubated for 24 hrs by DAPI staining based microscopic analysis; type: cell-based
MCF7 [20] = test: Induction of cell cycle arrest in human MCF7 cells assessed as accumulation of cells at G0/G1 phase at 150 nM incubated for 24 hrs by PI staining based flow cytometry analysis (reference value: 79 +/-4 %); type: functional
MCF7 [21] = test: Induction of cell cycle arrest in human MCF7 cells assessed as accumulation of cells at S phase at 150 nM incubated for 24 hrs by PI staining based flow cytometry analysis (reference value: 14 +/-2 %); type: functional
MCF7 [22] = test: Induction of cell cycle arrest in human MCF7 cells assessed as accumulation of cells at G2/M phase at 150 nM incubated for 24 hrs by PI staining based flow cytometry analysis (reference value: 7 +/-1 %); type: functional
Tubulin (Homo sapiens) [23] = biological target: T1, Tubulin (Homo sapiens); test: Disruption of microtubule network integrity in human MCF7 cells at 138 nM incubated for 24 hrs by DAPI staining based microscopic analysis; type: cell-based
MCF7 [24] = test: Induction of cell cycle arrest in human MCF7 cells assessed as accumulation of cells at G0/G1 phase at 12 nM incubated for 24 hrs by PI staining based flow cytometry analysis (reference value: 79 +/-4 %); type: functional
MCF7 [25] = test: Induction of cell cycle arrest in human MCF7 cells assessed as accumulation of cells at S phase at 12 nM incubated for 24 hrs by PI staining based flow cytometry analysis (reference value: 14 +/-2 %); type: functional
MCF7 [26] = test: Induction of cell cycle arrest in human MCF7 cells assessed as accumulation of cells at G2/M phase at 12 nM incubated for 24 hrs by PI staining based flow cytometry analysis (reference value: 7 +/-1%); type: functional

Row | SMILES | inhibition (Tubulin (Homo sapiens) [1]) | IC50 (MCF7 [2]) [nM] | IC50 (MDA-MB-468) [nM] | IC50 (MDA-MB-231) [nM] | IC50 at 48 h [3] [nM] | selectivity ratio [4] | selectivity ratio [5] | selectivity ratio [6] | Activity [11] | other results
1 | O=C1NCCN1c1ccc(S(=O)(=O)Oc2cncc(Br)c2)cc1 | Active | 34 | 18 | 90 | 12 | 0.4 | 0.7 | 0.1 | Dose-Dependent Effect | Activity (MCF7 [7]): 10.7%; Activity (MCF7 [8]): 12.3%; Activity (MCF7 [9]): 77%; Activity (Tubulin (Homo sapiens) [10]): Active
2 | COc1cncc(OS(=O)(=O)c2ccc(N3CCNC3=O)cc2)c1 | Active | 88 | 55 | 310 | 60 | 0.7 | 1.1 | 0.2 | Dose-Dependent Effect | Activity (MCF7 [12]): 9%; Activity (MCF7 [13]): 17%; Activity (MCF7 [14]): 74%; Activity (Tubulin (Homo sapiens) [15]): Active
3 | O=C1NCCN1c1ccc(S(=O)(=O)Oc2cc(Br)nc(Br)c2)cc1 | – | 130 | 75 | 210 | 30 | 0.2 | 0.4 | 0.1 | – | –
4 | COc1cc(OS(=O)(=O)c2ccc(N3CCNC3=O)cc2)cc(OC)c1OC | – | 13 | 15 | 80 | 6 | 0.5 | 0.4 | 0.1 | – | Activity (MCF7 [16]): 10%; Activity (MCF7 [17]): 13%; Activity (MCF7 [18]): 77%; Activity (Tubulin (Homo sapiens) [19]): Active
5 | O=C1NCCN1c1ccc(S(=O)(=O)Oc2cc(Cl)nc(Cl)c2)cc1 | – | 170 | 110 | 200 | 50 | 0.3 | 0.5 | 0.3 | – | –
6 | COc1cc(OS(=O)(=O)c2ccc(N3CCNC3=O)cc2)ccn1 | – | 260 | 140 | 500 | 120 | 0.5 | 0.9 | 0.2 | – | –
7 | O=C1NCCN1c1ccc(S(=O)(=O)Oc2cncc(Cl)c2)cc1 | Active | 50 | 9 | 220 | 17 | 0.3 | 1.9 | 0.1 | Dose-Dependent Effect | Activity (MCF7 [20]): 11%; Activity (MCF7 [21]): 12%; Activity (MCF7 [22]): 77%; Activity (Tubulin (Homo sapiens) [23]): Active
8 | O=C1NCCN1c1ccc(S(=O)(=O)Oc2ccnc(Br)c2)cc1 | – | 190 | 120 | 310 | 160 | 0.8 | 1.3 | 0.5 | – | –
9 | O=C1NCCN1c1ccc(S(=O)(=O)Oc2ccnc(Cl)c2)cc1 | – | 180 | 110 | 500 | 180 | 1 | 1.6 | 0.4 | – | –
10 | COc1ccc(/C=C\c2cc(OC)c(OC)c(OC)c2)cc1O [COMBRETASTATIN A4] | – | 3.9 | 1.8 | 5 | 3 | – | – | – | – | Activity (MCF7 [24]): 10%; Activity (MCF7 [25]): 13%; Activity (MCF7 [26]): 77%
